Results as given in US10463669B2, “Composition for treating or preventing liver cancer” (Seoul National University R&DB Foundation, priority 2016, dated 2019).

Legend:
[1] = system: AKT phosphorylation in THLE-3 cells; assay: AKT phosphorylation, immunoblot assay; format: cell-based, human
Procedure: (§1) Medium was exchanged every day, and the aforementioned cells were cultured for 4 days in 300 μmol/L hydrogen peroxide (H2O2) (Sigma Aldrich; H1009). In several experiments, the cells were treated for 1 hour with 5 mmol/L N-acetylcysteine (NAC) (Sigma Aldrich; A7250), 25 μmol/L idelalisib (LC Laboratoties, Woburn, Mass., USA; I-7447), 25 μmol/L perifosine (LC Laboratoties, Woburn, Mass., USA; P-6522), or 30 μmol/L GSK3β inhibitor (GSK3β inhibitor XI) (Santa Cruz; sc-204770) (31) before adding H2O2. Furthermore, sterilized distilled water (pH 7.0) was used as a negative control (i.e., mock treatment).
(§2) Total 2×10^5 cells were boiled for 5 minutes in 2×SDS sample buffer (100 mmol/L TrisHCl [pH 6.8], 4% SDS, 0.2% bromophenol blue, 20% glycerol, and 200 mmol/L β-mercaptoethanol), and then subjected to SDS-PAGE and Western blotting. To detect the TERT, the cells were cultured in 2×SDS sample buffer for 15 minutes at 55° C. TERT-specific (1:300, Rockland Immunochemicals, Gilbertsville, Pa., USA; 600-401-252), AKT-specific (1:1000, Cell Signaling Technology; #9272), phospho-AKT-specific (1:2000, Cell Signaling Technology; #4060), GAPDH-specific (1:2000, Santa Cruz Biotechnology; sc-47724), or β-actin-specific (1:2000, Sigma-Aldrich, St. Louis, Mo., USA; A5441) antibody was diluted in 5% skim milk or bovine serum albumin with TBS-Tween 20, cultured overnight at 4° C., washed, and cultured with HRP-conjugated secondary antibody (1:1000, Abcam; ab131368, or ab131366). By using FUSION-SOLO imager (Vilber Lourmat, Marne La Vallee, France), a chemical fluorescence image was obtained.

[2] = system: TERT expression in HCC cell lines (Huh7 and Hep3B); assay: TERT expression, quantitative real time-PCR and immunoblot; format: cell-based, human
Procedure: as §1
(§3) PCR was carried out by using TOPrealm qPCR 2×PreMIX (SYBR Green with high ROX) (Enzynomics, Daejeon, Korea; RT501M) and ABI Prism 7300 thermal cycler (Applied Biosystems, Foster City, Calif., USA). […] To examine the primer specificity, a dissociation step was additionally included.
as §2

[3] = system: TERT expression in THLE-3 cells; assay: as above; format: cell-based, human
Procedure: as §1, §3, §2

[4] = system: telomere length in THLE-3 cells; assay: Telomere length (immunoFISH, Flow FISH, quantitative PCR); format: cell-based, human
Procedure: Flow FISH was carried out as described before (Rufer N, et al., Nat Biotechnol. 1998; 16: 743-7) with few modifications. The cells were washed twice with cold PBS (phosphate-buffered saline) solution containing 0.1% w/v bovine serum albumin (BSA). Subsequently, the cells were re-suspended in hybridization buffer (70% deionized formamide (Amresco, Solon, Ohio, USA), 20 mmol/L TrisHCl [pH 6.8], 1% BSA, and 1 nmol/L FAM-labeled telomere PNA (telomere peptide nucleic acid) probe ([…], Korea), or 1 nmol/L FAM-labeled centromere PNA probe ([…]). Volume of the hybridization buffer was adjusted to 100 μl per 10^5 cells. Next, each sample was cultured for 10 minutes in a water bath at 85° C. […] Total 15,000 to 20,000 nuclei were analyzed for the each separate culture. Telomere fluorescence intensity of the all nuclei at […] phase of the cell cycle was measured by using BD FACS Calibur flow cytometer (Becton Dickinson, Franklin Lakes, N.J., USA) in which CELLQUEST software is used. […] For quantification of the telomere fluorescence intensity, centromere fluorescence intensity, and 8-oxo-dG fluorescence intensity, the same exposure time was employed. The telomere fluorescence level and 8-oxo-dG fluorescence level of tumor tissues were calculated by division of the fluorescence level in non-tumor tissues corresponding to 5 random fields. […]

[5] = system: Huh7 cells injected to subcutaneous tissues; assay: In vivo tumorigenicity analysis (xenograft of pre-treated cells); parameters: species or system KSN/Slc nude mouse
Procedure: The animal test was carried out according to the protocol which has been approved by Seoul National University Institutional Animal Care and Use Committee (Approval number: SNU-130225-6). The mouse was kept under usual conditions (i.e., semi-specific pathogen-free state), and allowed to have free access to food and water. For all xenografting studies, 5-week old KSN/Slc nude mouse was used. A mouse with bodyweight of 18 g to 20 g was used for the test. For the xenografting analysis, mock-treated 1×10^5 Huh7, 1×10^5 Huh7 treated only with 300 μmol/L H2O2, and 1×10^5 Huh7 treated with both of 25 μmol/L idelalisib and 300 μmol/L H2O2 were washed, harvested in PBS not containing Ca^2+ or Mg^2+, and subsequently injected in an amount of 0.2 mL to subcutaneous tissues. According to caliper measurement of two vertical diameters of a tumor (i.e., D1 as largest diameter and D2 as smallest diameter), the tumor product was monitored every week. The tumor volume was calculated by […].
Next, an examination was made to see whether or not idelalisib can have in vivo inhibition of tumor growth.

[6] = THLE-3 cells after H2O2 treatment

Row | SMILES | AKT phosphorylation level [1, 6] | TERT expression increased by ([2]; HCC cells treated with 300 μmol/L H2O2, compared to control HCC cells not exposed to H2O2) | TERT expression level [3, 6] | telomere length ([4]; THLE-3 cells exposed to 150 μmol/L H2O2) | latency time till tumor development ([5]; nude mouse injected with 1×10^5 HCC cells treated with H2O2) | basal level AKT phosphorylation ([1]; THLE-3, idelalisib at a concentration of 25 μmol/L) | TERT expression reduced by ([2]; 300 μmol/L H2O2-treated HCC cells plus idelalisib, compared to HCC cells treated with H2O2 only) | ROS-mediated increase in the TERT expression ([2]; H2O2-treated cells) | TERT expression ([2]; two HCC cell lines, no H2O2) | TERT expression ([3]; THLE-3 cells) | telomere length ([4]; THLE-3 cells) | time without tumor formation ([5]; nude mouse injected with HCC cells treated with both 300 μmol/L H2O2 and 25 μmol/L idelalisib)
1 | OO [H2O2, hydrogen peroxide] | no change | 40%-45% | no change | reduction | 28 days |  |  |  |  |  |  | 
2 | CC[C@H](Nc1ncnc2nc[nH]c12)c1nc2cccc(F)c2c(=O)n1-c1ccccc1 [idelalisib, 5-fluoro-3-phenyl-2-[(1S)-1-(7H-purin-6-ylamino)propyl]-4(3H)-quinazolinone] |  |  |  |  |  | not reduced | 65%-70% | almost completely inhibited | reduced | not reduced | not reduced | > 70 days
